According to patent US9387212B2, “Methods for treating Parkinson's disease” (UCB Pharma S.A., priority 2012, dated 2016):

Experiments:
PD patients = settings: Mizuno et al. 2010; Nutt et al., 2008; cited from earlier work
[1] = system: unilateral 6-OHDA-lesioned rats; test: Video-based behavioural profile analysis (Ethovision) in drug-naive hemi-parkinsonian rats; format: in vivo, rat; settings: % of the veh-treated rats; for Distance (quantity of movement): Radiprodil 3 mg/kg po, Tozadenant 30 mg/kg po, LD25 ip, LD/BZ 16/4 mg/kg ip; for Adequate body position / Adequate trajectory (gyration radius) / Contra turns (ability to shift direction) / Ipis turns (ability to shift direction): same doses
Experimental: (§1) The specific behavioural profile of unilateral 6-OHDA-lesioned rats was recorded via 8 cameras connected to a video acquisition system. Rats under treatment were placed freely in a small environment (rotometers, 25×22 cm) or in large open-field (50×40 cm) and the behaviour was video-recorded for 55 minutes (total of 3300 sec). The placement in the small (rotometers) or large (open-field) environment may depend on the test. The rats were filmed from below as described in the section which concerns the rotational activity.
(§2) After the in-live data recordings, the videos are subsequently analyzed by the Ethovision program from (Noldus, version 9.0). The animal and its movements and displacements were defined according to three points (nose, center and tail). The movements, position of the body and, the space occupation, were set-up according to the filter analysis defined with specific criteria and thresholds in the program. Various behavioural parameters were analyzed and only the relevant, i.e. the non-correlated ones, were kept for the final behavioural description.
(§3) The analysis of the other types of behaviours was done with specific parameters selected in the video analysis program (Ethovision 9.0) in order to describe as best as possible the behaviour observed visually and being able to quantify it. The parameters “Distance”, “Counter Clockwise rotations”, “Clockwise rotations”, “Streched” were extracted from the analysis. Additional parameter, the “gyration radius” is calculated from the raw data obtained by the system. • Distance (=“distance”): the total distance moved by the animal (cm) • Counter clockwise (=“ipsilateral turns”): count of the number of 360° turns of ipsilateral rotations in the same sense than that of the lesion. • Clockwise (=“contralateral turns”): count of the number of 360° turns of contralateral rotations in the opposite sense to that of the lesion. • Stretched: (=“adequate body position”): time spent in a position wherein the rat stands on its four paws without any bent position of the trunk. In the program this is the parameter “body elongation” that is used to discriminate the intensity and frequency of the adequate body position. The threshold is fixed at 70%. • Gyration Radius (=“adequate trajectory”): for a specific time interval, average distance between the animal position and its average position within this specific time interval. This parameter reflect the ability of the rats to use the entire space of the arena and is measured in centimeters. Statistical Analysis
Specific behavioural analysis: The five behaviours kept for the thorough behavioural analysis (i.e. distance, contra turns, ipsi turns, adequate body position and adequate trajectory) were analyzed with parametric statistic however if variance homogeneity was not respected for the data (Bartlett's test for equal variances) these latter were analyzed with non-parametric statistics (Kruskal-Wallis). In both case, one-way ANOVA was performed to discriminate the effect of the various treatments on each independent behaviours. Significant differences between means were determined by Tukey post hoc test or Dunn's Multiple Comparison test with p<0.05.
The effects of the oral co-administration of Radiprodil (3 mg/kg, po) with Tozadenant (30 mg/kg, po) on the rat behaviour are compared to the testing of: • 1) these compounds separately • 2) a partially active dose of L-Dopa (25 mg/kg, ip) • 3) a fully active dose of L-Dopa/benserazide (16/4 mg/kg, ip).
The behavioural profile was analyzed in detail with an automated behavioural analysis system based on video recordings (see methods section for the description). In addition, classical measurements (rotometers and actometers) of the behaviour are also used to assess quantity of movements. […]

[2] = system: hemi-parkinsonian L-Dopa-primed rats; test: Behavioural profile analysis in L-Dopa-primed, fully dyskinetic hemi-parkinsonian rats; format: in vivo, rat; settings: Radiprodil 3 mg/kg, Tozadenant 30 mg/kg; for Distance, in comparison to the same rats under L-Dopa/benserazide: arrow in cell: increase, decrease or no change vs LD/BZ
Experimental: as §1, §2
The analysis of the Abnormal Involuntary movement (“AIMs”) was performed with a specific parameter defined in Ethovision 9.0. The parameter “body elongation” was used to discriminate both the intensity and the frequency of dyskinetic (i.e. dystonic) position of the rat.
as §3
Consecutively to that chronic L-Dopa/benzerazide treatment, they show a very high level of contralateral rotations and AIMs at the end of this chronic treatment when tested in the open-field. […] This absence of cross-sensitization on the level of contralateral rotations and AIMs result was entirely unexpected.

[3] = system: unilateral 6-OHDA-lesioned rats; test: Chronic add-on treatment to an active dose of L-Dopa/benserazide (10 acquisition sessions; rotometers and open-field); format: in vivo, rat; settings: plus L-Dopa 14 mg/kg/benserazide 3.5 mg/kg; in comparison to Tozadenant-treated rats (FIG. 16)
Experimental: Rotational behaviour was recorded using a home-made computerized system. Rats were fixed in a harness, linked to mechanical sensors that were directly connected to a PC. Each 360° clock-wise or counter clock-wise turn was automatically recorded for up to 240 minutes at the maximum. Throughout the experiments, rats were allocated to individual test cages. Each of 8 clear acrylic chambers (50×40 cm), placed on a level, clear glass bottom, held by a robust frame, could be subdivided into 4 individual square test cages of 25×22 cm. A removable acrylic plate serves as a lid. […] Video sequences were recorded on hard disk for storage and subsequently transferred to PC for analysis and conservation. […]
Data of the acquisition session under treatment with A2A and/or NR2B antagonist plus L-Dopa/benserazide were analyzed by two-way repeated measures ANOVA with chronic session as within-subjects factor (10 session levels). The reliabilities of the between-mean differences were assessed with planned contrasts using an F statistic. […]
Ten acquisition sessions (once/day) of L-Dopa (14 mg/kg)/benserazide (3.5 mg/kg) given in co-administration to veh, Tozadenant, Radiprodil or the combination of both compounds increase progressively the level of L-Dopa-induced contralateral rotations when measured in rotometers (FIG. 15). […]

[4] = system: unilateral 6-OHDA-lesioned rat model of Parkinson's disease; test: General activity (distance travelled, rearing counts) in actometers; format: in vivo; settings: Radiprodil 3 mg/kg po, Tozadenant 30 mg/kg po; three-way mixed ANOVA, Tukey p<0.05
Experimental: Subjects: Males Sprague-Dawley rats (Janvier, France), weighing 250-275 g at the time of surgery and 400-450 g at the time of drug testing are used.
On the day of surgery, one week after arrival, rats received unilateral 6-OHDA injection into the right medial forebrain bundle. Each rat was administered with Imipramine HCl (Sigma) 15 minutes before surgery to protect norepinephrinergic (NE) neurons. Rats were anesthetized with Ketamine (Ceva, 75 mg/kg) and Xylazine (Bayer, 10 mg/kg) and placed in stereotaxic frame (David Kopf Instrument). […] Each rat was monitored and handled regularly for 3 weeks to ensure full recovery and acclimation to the experimenters and environment. […]
General activity was recorded within large open-field measuring horizontal and vertical movements and connected to PCs. […] Locomotion was detected and measured by 16 infrared light-beam sensors located on each side of the enclosure at heights of 3 cm. […] Activity counts were recorded by a personal computer. […]
The level of general activity (distance and rearing) measurement in actometers was assessed by three-way mixed ANOVA with the A2A antagonist (2 levels) and the NR2B antagonist (2 levels) as between-group factors and the time as within-subjects factor (6 or 24 levels). […]

For `CCn1c(=O)c2c(nc(/C=C/c3ccc(OC)c(OC)c3)n2C)n(CC)c1=O` [KW-6002], the “efficacy in clinical trials in PD patients” value (PD patients) is given as “did not show the expected efficacy”.

In the case of `N[C@@H](Cc1ccc(O)c(O)c1)C(=O)O` [LD25, L-dihydroxyphenylalanine], the “Distance (quantity of movement)” value ([1]; 0-20′) is reported as “++ (300-500%)”, the Adequate body position ([1]; 0-20′) is reported as “+ (200-300%)” and the “Adequate trajectory (gyration radius)” value ([1]; 0-20′) is reported as “+++ (>500%)”. The “Contra turns (ability to shift direction)” value ([1]; 0-20′) was “+++ (>500%)”, the “Ipis turns (ability to shift direction)” value ([1]; 0-20′) was “++ (300-500%)” and the “Distance (quantity of movement)” value ([1]; 30-50′) was “+++ (>500%)”. For the same molecule, the Adequate body position ([1]; 30-50′) was “++ (300-500%)”, the “Adequate trajectory (gyration radius)” value ([1]; 30-50′) was “+++ (>500%)” and the “Contra turns (ability to shift direction)” value ([1]; 30-50′) was “+++ (>500%)”. The “Ipis turns (ability to shift direction)” value ([1]; 30-50′) was “++ (300-500%)”.

In the case of `O=C(Nc1ccc2[nH]c(=O)oc2c1)C(=O)N1CCC(Cc2ccc(F)cc2)CC1` [Radiprodil], the “Adequate body position, in comparison to the same rats under L-Dopa/benserazide” value ([2]; arrow gives direction vs LD/BZ) is reported as 5236% ↑, the “Adequate trajectory, in comparison to the same rats under L-Dopa/benserazide” value ([2]; arrow gives direction vs LD/BZ) is reported as 140% ↑ and the “Contra turns, in comparison to the same rats under L-Dopa/benserazide” value ([2]; arrow gives direction vs LD/BZ) is reported as 16% ↓. The “No AIMs, in comparison to the same rats under L-Dopa/benserazide” value ([2]; arrow gives direction vs LD/BZ) was 1035% ↑, the “Severe AIMs, in comparison to the same rats under L-Dopa/benserazide” value ([2]; arrow gives direction vs LD/BZ) was 7% ↓ and the “Distance, in comparison to the same rats under L-Dopa/benserazide” value [2] was 69% ↓. For the same molecule, the “level of severe AIMs in larger open-field, chronic add-on” value [3] was “level of severe AIMs is reduced”, the “Distance (quantity of movement)” value ([1]; 0-20′) was “++ (300-500%)” and the Adequate body position ([1]; 0-20′) was “++ (300-500%)”. For the same molecule, the “Adequate trajectory (gyration radius)” value ([1]; 0-20′) was “++ (300-500%)”, the “Contra turns (ability to shift direction)” value ([1]; 0-20′) was “+ (200-300%)” and the “Ipis turns (ability to shift direction)” value ([1]; 0-20′) was “+ (200-300%)”. The “Distance (quantity of movement)” value ([1]; 30-50′) was “+ (200-300%)”, the Adequate body position ([1]; 30-50′) was “++ (300-500%)” and the “Adequate trajectory (gyration radius)” value ([1]; 30-50′) was “++ (300-500%)”. The “Contra turns (ability to shift direction)” value ([1]; 30-50′) was “+ (200-300%)”, the “Ipis turns (ability to shift direction)” value ([1]; 30-50′) was “+ (200-300%)” and the “distance (FIG. 1, right graph)” value [4] was “Significant effect”.

For `COc1ccc(N2CCOCC2)c2sc(NC(=O)N3CCC(C)(O)CC3)nc12` [Tozadenant, 4-hydroxy-4-methyl-piperidine-1-carboxylic acid (4-methoxy-7-morpholin-4-yl-benzothiazol-2-yl)-amide], the “Adequate body position, in comparison to the same rats under L-Dopa/benserazide” value ([2]; arrow gives direction vs LD/BZ) was 4151% ↑, the “Contra turns, in comparison to the same rats under L-Dopa/benserazide” value ([2]; arrow gives direction vs LD/BZ) was 11% ↓ and the “No AIMs, in comparison to the same rats under L-Dopa/benserazide” value ([2]; arrow gives direction vs LD/BZ) was 948% ↑. The “Severe AIMs, in comparison to the same rats under L-Dopa/benserazide” value ([2]; arrow gives direction vs LD/BZ) was 12% ↓, the “Distance, in comparison to the same rats under L-Dopa/benserazide” value [2] was 56% ↓ and the “Distance (quantity of movement)” value ([1]; 0-20′) was “+ (200-300%)”. For the same molecule, the Adequate body position ([1]; 0-20′) was “+ (200-300%)”, the “Adequate trajectory (gyration radius)” value ([1]; 0-20′) was “+++ (>500%)” and the “Contra turns (ability to shift direction)” value ([1]; 0-20′) was “+ (200-300%)”. The “Ipis turns (ability to shift direction)” value ([1]; 0-20′) was “+ (200-300%)”, the “Distance (quantity of movement)” value ([1]; 30-50′) was “++ (300-500%)” and the Adequate body position ([1]; 30-50′) was “++ (300-500%)”. For the same molecule, the “Adequate trajectory (gyration radius)” value ([1]; 30-50′) was “+++ (>500%)”, the “Contra turns (ability to shift direction)” value ([1]; 30-50′) was “++ (300-500%)” and the “Ipis turns (ability to shift direction)” value ([1]; 30-50′) was “++ (300-500%)”. The “distance (FIG. 1, right graph)” value [4] was “Significant effect”.

In the case of `C[C@@H]([C@@H](O)c1ccc(O)cc1)N1CCC(O)(c2ccccc2)CC1` [Traxoprodil], the “efficacy in clinical trials in PD patients” value (PD patients) is listed as “did not show the expected efficacy”.
